Experimental data taken from paper PMC12080252, “Daphnia magna as an Alternative Model for (Simultaneous) Bioaccumulation and Chronic Toxicity Assessment—Controlled Exposure Study Indicates High Hazard of Heterocyclic PAHs” (Environmental Science & Technology, 2025).
Where “and” joins values, the source holds several entries; their conditions need not be identical. Equal values may be shown once.

Legend:
[1] = Chronic reproduction toxicity test (OECD 211) with passive dosing; type: in vivo, Daphnia magna; conditions: Daphnia magna, in vivo, other: waterborne exposure by passive dosing from PDMS disks, 21-day test, read-out: % offspring mortality of total offspring
Procedure: (§1) Chronic toxicity tests with D. magna were performed according to the OECD guideline 211^2 using the passive dosing method. Two days before the tests, the exposure solution was predosed by shaking 10 PDMS disks loaded with the test substance in 1 L of medium for 48 h. Each test vessel (250 mL) was first flushed with the dosed solution to equilibrate the vessel walls, then filled with 100 mL of test solution, one PDMS disk, and one juvenile D. magna (<24 h old). The tests were conducted in loosely closed bottles to allow for adequate gas exchange and limit evaporation. The exposure medium was changed three times per week, and the animals were fed D. subspicatus daily (0.2 mg C/Daphnia/day). The number of offspring per adult and behavioral or physiological effects (e.g., size, movement, unhatched eggs) were recorded daily (except weekends). Dissolved oxygen, pH and temperature were also measured each week.
(§2) Tests were performed under static conditions (20 °C, 16:8 h light/dark cycle, 1 klux). Each compound was tested in 10 replicates for controls and limit tests (a single high concentration exposure to screen for significant toxic effects) and with 6 or 10 replicates for concentration–response tests. Reuse of silicone disks was included in some experiments (Table S3). Reproductive inhibition was assessed by counting offspring over 21 days. The number of offspring per mother in treatment groups was compared to controls, and the percent inhibition per replicate was used to generate concentration–response curves. A minimum of five concentrations per compound were tested to determine EC10, EC20, and EC50 values. For each test, three sets of polymers were rotated between loading, dosing, and exposure stages (Figure S2). Initial (before animal and food addition) and final (after 2–3 days of exposure, just before the medium change) water concentrations (CW) were monitored, with the latter collected after centrifugation to remove biomass (e.g., algae, carapaces, or feces).
(§3) All data are presented as average ± standard deviation. Student’s t test was used to analyze significance (p-value >0.05 considered insignificant). Concentration–response curve parameters (effective concentrations and confidence limits) and plots were generated using GraphPad Prism software (V6.01, GraphPad Software, La Jolla, CA, USA). The exposure concentrations were log10 transformed before fitting. Then a four parameters logistic model with variable slope was used to obtain EC10, EC20 and EC50 (see section S5 in SI file for details). Effective chemical activities (EA50) for chronic toxicity were calculated as follows: [drawing 1] 1 […]
(§4) S5. Concentration-response curve (CRC) fitting procedure
(§5) GraphPad Prism version 9.5.1 was used to fit CRC and obtain EC10, EC20, EC50 values and their confidence intervals. The exposure concentrations were log10 transformed before fitting. Then a four parameters logistic model with variable slope was used that describes the response as a function of following four parameters: minimum response (the Bottom), maximum response (the Top), the concentration required to cause a response half-way between the minimum and maximum (the EC50) and the slope of the curve […]
(§6) concentration. The Top was constrained to 100, the Bottom was constrained to 0, the HillSlope was not […]
(§7) !"# %& = !"# %&* − , × !"# 3 * 4
(§8) (, + ,((!"# %&'(<=)×-.!!/!"01)
(§9) Figure S7 Concentration-response curves of four NSO-PAHs based on reproductive inhibition during 21-day chronic toxicity tests with D. magna.
(§10) (1 picture or pasted object on this page, not shown here)

Daphnia magna = assay: as above; type: in vivo; conditions: for Total #dead offspring per mother (per vessel) / Total #offspring per mother (per vessel) / % inhibition (per vessel): individual vessels; for EC10: 21-day reproduction inhibition; for wet weight of parent daphnids, change relative to control: end of 21-d exposure; for % inhibition, avr. / % inhibition (per vessel): reproduction vs controls
Procedure: as §1, §2, §3, §4, §5, §6, §7, §8, §9, §10

D. magna = conditions: acute test, at water solubility; cited from earlier work

## c1ccc2c(c1)ccc1sc3ccccc3c12 [BNT, benzo[b]naphtho[1,2-d]thiophene]
[1]; 0.07 µg/L (Fig. S8)
  mortality at 21 days, 0.07 µg/L: 1.8%
[1]; 0.25 µg/L (Fig. S8)
  mortality at 21 days, 0.25 µg/L: 11.1%
[1]; 0.38 µg/L (Fig. S8)
  mortality at 21 days, 0.38 µg/L: 11.7%
[1]; 0.81 µg/L (Fig. S8)
  mortality at 21 days, 0.81 µg/L: 14.8%
[1]; 1.94 µg/L (Fig. S8)
  mortality at 21 days, 1.94 µg/L: 14.2%
[1]; 4.63 µg/L (Fig. S8)
  mortality at 21 days, 4.63 µg/L: 20.8%
[1]; 12.00 µg/L (Fig. S8)
  mortality at 21 days, 12 µg/L: 28%
Daphnia magna; 0.07 µg/L, 21 days
  #average live offspring: 67
  %offspring mortality: 1.76%
  Total #dead offspring per mother (per vessel): 0 and 2
  % inhibition, avr.: 1.3%
  % inhibition (per vessel): -3.4% and -4.9% and -1.9% and 15.8% and 1.0%
Daphnia magna; 0.07 µg/L, 21 days, all vessels without outlier
  #total live offspring: 334
Daphnia magna; 0.25 µg/L, 21 days
  #average live offspring: 67
  %offspring mortality: 11.09%
  Total #dead offspring per mother (per vessel): 8 and 14 and 9 and 6 and 5
  % inhibition, avr.: 1.3%
  % inhibition (per vessel): -19.6% and -7.8% and 14.3% and 5.5% and 9.9%
Daphnia magna; 0.25 µg/L, 21 days, all vessels
  #total live offspring: 401
Daphnia magna; 0.38 µg/L, 21 days
  #average live offspring: 62
  %offspring mortality: 11.71%
  Total #dead offspring per mother (per vessel): 9 and 16 and 10 and 5 and 1
  % inhibition, avr.: 8.7%
  % inhibition (per vessel): 2.5% and 18.8% and -21.1% and 20.2% and 23.2%
Daphnia magna; 0.38 µg/L, 21 days, all vessels without vessel 2 (X)
  #total live offspring: 309
Daphnia magna; 0.81 µg/L, 21 days
  #average live offspring: 52
  %offspring mortality: 14.75%
  Total #dead offspring per mother (per vessel): 10 and 9 and 3 and 24 and 5
  % inhibition, avr.: 23.2%
  % inhibition (per vessel): 40.9% and 12.9% and 11.4% and 49.8% and 15.8% and 8.4%
Daphnia magna; 0.81 µg/L, 21 days, all vessels
  #total live offspring: 312
Daphnia magna; 97.5-2.5% confidence interval in brackets
  EC10: 0.33 (0.12-0.73) μg L^-1
Daphnia magna; confidence interval in brackets
  EC10: 1.40 (0.49-3.10) nmol L^-1
Daphnia magna; 21-day test, p-value <0.05
  growth of parent D. magna (wet weight): significantly inhibited D. magna growth
Daphnia magna; 21 days, p-value <0.05 vs controls
  LOEC (lowest observed effect concentration, reproduction inhibition): 0.8 μg L^–1
Daphnia magna; BNT avr. medium concentration 0.25 µg/L (methanol dosing 0.063 g/L), 21 days
  Total #offspring per mother (per vessel): 81 and 73 and 58 and 64 and 61
Daphnia magna; BNT avr. medium concentration 0.38 µg/L (methanol dosing 0.125 g/L), 21 days
  Total #offspring per mother (per vessel): 66 and 55 and 82 and 54 and 52
Daphnia magna; BNT avr. medium concentration 0.81 µg/L (methanol dosing 0.25 g/L), 21 days
  Total #offspring per mother (per vessel): 40 and 59 and 60 and 34 and 57 and 62
Daphnia magna; EC50/subcooled liquid solubility, eq 1
  EA50 (effective chemical activity): 0.026 unitless
Daphnia magna; chronic EC10 < 10 μg L^–1
  Classification according to REACH Annex XIII: toxic to aquatic life
Daphnia magna; derived from chronic EC10 using eq 3
  CTLBB (critical target lipid body burden): 0.8 μmol g^-1 octanol
Daphnia magna; 0.07 µg/L (Fig. S9)
  wet weight of parent daphnids, change relative to control: -11%
Daphnia magna; 0.25 µg/L (Fig. S9)
  wet weight of parent daphnids, change relative to control: -19%
Daphnia magna; 0.38 µg/L (Fig. S9)
  wet weight of parent daphnids, change relative to control: -17%
Daphnia magna; 0.81 µg/L (Fig. S9)
  wet weight of parent daphnids, change relative to control: -3%
Daphnia magna; 1.94 µg/L (Fig. S9)
  wet weight of parent daphnids, change relative to control: +13%
Daphnia magna; 4.63 µg/L (Fig. S9)
  wet weight of parent daphnids, change relative to control: -24%
D. magna
  effect on D. magna immobilization: 35%
